Results reported in PMC12702354, “Engineered an ultrasmall curcumin oral nanoformulation restores intestinal integrity and gut microbiota dysbiosis” (Materials Today Bio, 2025).
Where two headings read alike, the source gives them in different places.

What was measured:
[1] = Storage stability of UsNFs in MQW over 180 days at 37 °C; assay type: physicochemical; settings: 37 ± 1 °C
Description: The release kinetics of CUR from the UsNFs was also measured for 24 h in simulated gastric fluid (SGF; pH 2.5) and simulated intestinal fluid (SIF; pH 7.0) at 37 ± 1 °C (Fig. 2F). […] Additionally, the stability of UsNFs, which were dissolved at a concentration of 2 mg/mL in MQW, was also tested over 180 days at a temperature of 37 ± 1 °C (Fig. 2G and H). […] The autoxidation, hydrolysis, and degradation-induced content loss of CUR is a significant issue.

[2] = tested on: Caco-2 cell monolayer; experiment: TEER of Caco-2 cell monolayer; assay type: cell-based, human; settings: applied apically 120 min, then removed
Description: First, 5 × 10^4 Caco-2 cells/well, as a gastrointestinal epithelium model were cultured in transwell plates (Thermo Fisher, India) with a pore size of 0.4 μm. Once the TEER values attained 500 Ω cm^2, the cell monolayers were utilized for the subsequent experiments. Initially, mucin (10 mg/mL PBS) was introduced into the apical medium to mimic the occurrence of mucus, whereas PBS without mucin was utilized to represent the condition lacking mucus. Subsequently, IF (20 μL, 100 IU/mL) and 200 μL of CUR formulations (1 mg/mL) were introduced into the upper chambers. While incubating in a water bath at 37 °C, samples were taken from the lower chambers for analysis at various time intervals. A portion of the basolateral medium was taken out and examined using RP-HPLC to quantify the CUR content. The Papp of CUR was determined using the method outlined in a previous study. To analyze intracellular uptake, cells were gathered and underwent multiple freeze-thaw cycles prior to being lysed for 60 min. The concentration of CUR taken up by the cells was assessed using HPLC. Additionally, TEER measurements were recorded to evaluate the effect of CUR formulations on the monolayer's integrity. The baseline TEER readings for the Caco-2 cell layer were recorded. The apical media were then substituted with CUR formulations (200 μL). […] The Papp values for CUR were calculated.

[3] = Stability in SIF (pancreatin + bile salts); assay type: physicochemical; settings: 24 h
Description: To examine the breakdown of nGM@CUR-UsNF and cGM@CUR-UsNF in SGF and SIF, Fӧrster resonance energy transfer (FRET) analysis was conducted. Formulations co-loaded with HIQ and NR (FRET pairs) were prepared by mixing galactomannan or cGM with HIQ (1 mg/mL) and NR (0.4 mg/mL), followed by sonication 150 W and 25 kHz in an ice-water bath and then filtered using a 0.1 μm membrane. Ultimately, the HIQ/NR@cGM was produced by exposing it to a 253.7 nm UV light at 36 W for 90 min. The control sample of HIQ/NR@GM was also prepared. The PS, PDI, and ZP of the prepared formulations were assessed through dynamic laser scattering. The LE was also determined. The prepared formulations were mixed with SGF or SIF in tubes. […] Fluorescence intensities were captured using a SYNERGY/HTX (BioTek, Germany) with the excitation at 510 nm and emission at 635 nm. The FRET ratio was determined using the formula FRET ratio = INR/(INR + IHIQ), where IHIQ and INR represented the fluorescence intensities of HIQ and NR at 510 nm and 635 nm, respectively, with an excitation wavelength of 450 nm. […] CUR retention was measured using HPLC following the separation of the released drug, while particle size was assessed through DLS analysis. The stability of the polymer was evaluated using gel permeation chromatography and a reducing sugar assay. […]

[4] = Dose determination: body weight and liver weight; assay type: in vivo, C57BL/6 mice; settings: for Final body weight / Liver weight / Rel. liver weight: n = 12
Description: We first determined the doses of UsNFs and free-CUR in eight-week-old female C57BL/6 mice before systematically evaluating the retention of UsNFs in the GIT and PK of CUR. […] Consequently, 50 mg/kg was identified as the optimal dosage for subsequent in vivo therapeutic assessment of both UsNFs and free-CUR, achieving a balance between efficacy potential, safety, and physiological tolerance.

[5] = PK study after oral gavage; assay type: in vivo, C57BL/6J mice; settings: 50 mg/kg
[6] = tested on: gut microbiota; experiment: 16S rRNA gene sequencing of gut microbiota in VAN-induced mice; assay type: in vivo, C57BL/6 mice; settings: heat map-cluster and qPCR analysis
Excerpt: Faecal microbial genomic DNA was isolated and quantified as described elsewhere. Universal primers were employed to facilitate the amplification of the V3 and V4 domains of the 16S rRNA gene. The obtained amplicons were normalized, aligned to create the sequencing library, and sequenced on an Illumina MiSeq (San Diego, USA). The raw data of 16S rRNA gene sequences were filtered based on high error probability (>0.01) and analyzed by QIIME version (1.9.1). We generated OTUs at an identity threshold of 97 % using UPARSE (version 7.0.1001). NMDS plots were developed using PAST version 2.17 [44]. Heatmap profiles were constructed using R Studio software version 3.6.1. To examine the differentially abundant biomarkers between the different groups, LEfSe analysis was performed. Spearman correlational studies were performed to assess the correlations between VAN-induced inflammation-related parameters and gut bacteria and metabolites.

[7] = tested on: VAN-induced C57BL/6J mouse model; experiment: VAN-induced intestinal epithelial barrier dysfunction and gut inflammation model; settings: 50 mg/kg oral daily, 10 days after VAN
Description: This was succeeded by a daily oral administration of 50 mg/kg UsNFs of CUR for another 10 days, whereas the control group (CON) received standard rodent feed and water (Fig. 5A).

[8] = male, C57BL/6J, mouse, CUR in plasma, n = 6
[9] = male, C57BL/6J, mouse, plasma, n = 6

## COc1cc(/C=C/C(=O)CC(=O)/C=C/c2ccc(O)c(OC)c2)ccc1O [free-CUR, curcumin]
[1]
  CUR content remaining after storage: 27%
  CUR degradation during storage: over 73%
[2]
  TEER change of cell monolayer: kept the TEER steady
[3]
  CUR retained: less than 10%
[4]; 25 mg/kg and 50 mg/kg
  Final body weight or relative liver weight compared to normal control: no significant differences
[4]; 25 mg/kg
  Final body weight: 22.02 ± 0.15 g
  Liver weight: 1.06 ± 0.036 g
  Rel. liver weight: 4.81 ± 0.11 Liver wt/100 g b.wt
[4]; 50 mg/kg
  Final body weight: 21.6 ± 0.19 g
  Liver weight: 1.05 ± 0.022 g
  Rel. liver weight: 4.86 ± 0.23 Liver wt/100 g b.wt
[4]; 75 mg/kg
  Final body weight: 16.2 ± 0.21 g
  Liver weight: 1.19 ± 0.038 g
  Rel. liver weight: 7.34 ± 0.16 Liver wt/100 g b.wt
[5]; CUR in plasma, n = 6
  Cmax: 7.126 ± 0.317 ng/mL
[5]; [8]
  AUC(0-inf): 10.4 ± 0.683 ng·h/mL
  AUC(0-t): 7.68 ± 0.218 ng·h/mL
[5]; [9]
  Tmax: 30 min
  half-life: 64.6 ± 8.22 min
[5]; male, C57BL/6J, mouse, plasma, n = 6, read-out: Ke (converted)
  k el: 5.25e-05 s⁻¹
[5]; male, C57BL/6J, mouse, plasma, po, CUR in plasma, n = 6, read-out: Cmax
  Cmax: ~7.13 ng/mL
[5]; relative to free-CUR, n = 6
  Bioavailability: 100.00 ± 29.388%
[6]
  Restoring effect on VAN-altered GM: did not show any significant restoring effects
[7]
  Colon length: no significant decrease
  MDA levels: only partially diminished
